# Legend:
# Assay type in all cases: in vivo
# Details in all cases: oral, in feed (0.25% N-acetyl-trans-4-hydroxy-L-proline or 0.5% trans-4-hydroxy-L-proline) versus control feed
# IgE = IgE concentration in serum of atopic dermatitis model mice (ELISA)
# Description: (§1) For the test, NC/Nga mice (five weeks age; purchased from Charles River) were used. The breeding conditions were that the mice were bred under room temperature of 22±2° C. and humidity of 35±15% and that feed and water were freely taken by them.
# (§2) The test feed was prepared by well mixing of powdery feed CE-2 (manufactured by Nippon Claire) with 0.25% by weight of N-acetyl-trans-4-hydroxy-L-proline or 0.50% by weight of trans-4-hydroxy-L-proline. The feed containing N-acetyl-trans-4-hydroxy-L-proline was named a feed 1 while the feed containing trans-4-hydroxy-L-proline was named a feed 2 and, as a control feed, a powdery feed CE-2 was used.
# (§3) With regard to the hapten, a product prepared by dissolving 1.5% by weight of dinitrochlorobenzene (DNCB) in a solution comprising 20% by volume of olive oil and 80% by volume of acetone was used.
# (§4) Three mice were used for each of the test groups, and 20 μl of 1.5% DNCB was respectively applied onto both side of the right auricle of each of the mice after nine days, ten days, thirteen days and fourteen days from initiation of administration of the test feed.
# With regard to the model mice where atopic dermatitis appeared used in Test Example 1, blood was collected from right thigh on the 27th day from initiation of administration of the test feed. […]
# mast cells = test: Mast cell density at auricle of atopic dermatitis model mice (Toluidine Blue staining)
# Description: as §1, §2, §3, §4
# With regard to the model mice where atopic dermatitis appeared used in Test Example 1, tissues at auricle were frozen and embedded in Tissue-Tek O. C. T. Compound (manufactured by Sakura Seiki K. K.) on the 27th day from initiation of administration of the test feed. […]
# NC/Nga mice = test: Suppression of auricular edema in DNCB-treated atopic dermatitis model mice
# Description: as §1, §2
# With regard to the hapten, a product prepared by dissolving 1.5% by weight of dinitrochlorobenzene (DNCB) in a solution comprising 20% by volume of olive oil and 80% by volume of acetone was used. […]
# Starting from the day when application of the hapten started, thickness of the right auricle was measured using Pescock Dial Thickness Gauge (manufactured by Ozaki Seisakusho) one daily.
# An increasing amount of auricular edema was calculated according to the following formula 1 as a relative value to an increasing amount of auricular edema of a mouse which was not treated with DNCB and the result is shown in Table 2. […]
SMILES,increase in IgE concentration in serum by application of DNCB (result in words) (IgE),increase in mast cell density by application of DNCB (result in words) (mast cells),auricular edema induced by DNCB (result in words) (NC/Nga mice)
CC(=O)N1C[C@H](O)C[C@H]1C(=O)O [N-acetyl-trans-4-hydroxy-L-proline],significantly suppressed,apparently suppressed,apparently suppressed
O=C(O)[C@@H]1C[C@@H](O)CN1 [trans-4-hydroxy-L-proline],significantly suppressed,apparently suppressed,apparently suppressed

# — US20060034781A1, “PERORAL PREPARATION FOR PREVENTION OR TREATMENT OF ATOPIC DERMATATIS” (Kyowa Hakko Kogyo Co., Ltd., priority 2002, published 2006)
